Where no end group is shown, it is not given here.
Assays:
Assay type in all cases: cell-based
[1] = tested on: human peripheral blood mononuclear cells (PBMC); assay: TNF production from LPS-treated human PBMC, CBA (Example 5); conditions: Table 21
Procedure: (§1) Peripheral blood was drawn from healthy volunteers (with approval from the relevant ethical committee in Denmark). Heparinized blood was diluted 1/1 v/v with RPMI and were subjected to Ficoll density centrifugation within 2 h of drawing. Plasma was collected from the top from individual donors and was kept on ice until it was used at 2% in the culture medium (autologous culture medium). Isolated PBMC were resuspended in autologous culture medium and seeded in 96-well culture plates with 255.000 cells per well in a total of 200 μl. […] The concentrations used for stimulation were optimized on 3 different donors in initial experiments, for LPS two different concentrations were used to be sure to be on a cytokine level that is possible to modulate. In some experiments PBMC were treated with Dexamethason and Indomethacin alone and together with LPS or LTA as a control on downregulation of inflammatory cytokines. The supernatants were collected after incubation at 37° C. for 24 hours, and stored at −80° C. until cytokine measurement. Viability was measured by Alamar Blue (Biosource, DALL 1100) in all experiments and in some cases also by MTS (Promega) according to manufacturer's instruction and was in some experiments also judged by counting of the cells by a Nucleocounter.
(§2) Cytokine production in supernatants was measured by flow cytometry with a human inflammation cytometric bead array (CBA) according to manufacturer's instructions (BD) on a FACSarray flow cytometer. The following cytokines were measured: IL-8, IL-1β, IL-10, TNF, IL-12 p70, IL-6. In some experiments, cytokines were measured by ELISA kits from R&D systems (IL-10, TNF-α, IL-1β) according to the manufacturer′ instruction.
(§3) Example 5 was carried out essentially as described in Example 4.
(§4) In each table, all samples were tested on the same donor. SD means standard deviation.

[2] = tested on: human peripheral blood mononuclear cells (PBMC); assay: IL-10 production from LPS-treated human PBMC, CBA (Example 5); conditions: for IL-10 / IL-10 % of control: Table 22
Procedure: as §1, §2, §4

[3] = tested on: human peripheral blood mononuclear cells (PBMC); assay: IL-1β production from LPS-treated human PBMC, CBA (Example 5, Table 23)
Procedure: as §1, §2, §3, §4

[4] = tested on: human PBMC; assay: Toxicity to human PBMC (Example 5)
Procedure: as §1, §3

[5] = LPS 0.6 ng/ml, test compound 1 μg/ml
[6] = LPS 0.6 ng/ml, test compound 10 μg/ml
[7] = LPS 20 ng/ml, test compound 1 μg/ml
[8] = LPS 20 ng/ml, test compound 10 μg/ml
[9] = Medium (no LPS), test compound 1 μg/ml
[10] = Medium (no LPS), test compound 10 μg/ml
[11] = LPS 0.6 ng/ml, test compound 40 μg/ml
[12] = LPS 20 ng/ml, test compound 40 μg/ml

## hBD4 variant: consists of amino acids 3-39 of hBD4, SEQ ID NO:5 (ELDRICGYGTARCRKKCRSQEYRIGRCPNTYACCLRK)
[1]; 1 μg/ml, LPS 0.6 ng/ml
  TNF: 468 pg/mL
  TNF % of control: 64%
[1]; 1 μg/ml, LPS 20 ng/ml
  TNF: 778 pg/mL
  TNF % of control: 36%
[1]; 1 μg/ml, Medium
  TNF: 0 pg/mL
[1]; 10 μg/ml, LPS 0.6 ng/ml
  TNF: 211 pg/mL
  TNF % of control: 29%
[1]; 10 μg/ml, LPS 20 ng/ml
  TNF: 139 pg/mL
  TNF % of control: 6%
[1]; 10 μg/ml, Medium
  TNF: 0 pg/mL
[2]; 1 μg/ml, LPS 0.6 ng/ml
  IL-10: 90 pg/mL
  IL-10 % of control: 136%
[2]; 1 μg/ml, LPS 20 ng/ml
  IL-10 % of control: 157%
[2]; 1 μg/ml, Medium
  IL-10: 0 pg/mL
[2]; 10 μg/ml, LPS 0.6 ng/ml
  IL-10: 92 pg/mL
  IL-10 % of control: 139%
[2]; 10 μg/ml, LPS 20 ng/ml
  IL-10: 187 pg/mL
  IL-10 % of control: 168%
[2]; 10 μg/ml, Medium
  IL-10: 0 pg/mL
[2]; human PBMC with LPS, summary of Table 22
  Secretion of IL-10: significantly and dose-dependently enhanced
[3]; [5]
  IL-1β: 286 pg/mL
  IL-1β % of control: 39%
[3]; [6]
  IL-1β: 163 pg/mL
  IL-1β % of control: 22%
[3]; [7]
  IL-1β: 1004 pg/mL
  IL-1β % of control: 40%
[3]; [8]
  IL-1β: 463 pg/mL
  IL-1β % of control: 18%
[3]; [9]
  IL-1β: 0 pg/mL
[3]; [10]
  IL-1β: 0 pg/mL
[4]; 40 μg/ml
  toxicity to the cells: toxic to the cells

## hBD3: human beta defensin 3 (SEQ ID NO:3), prepared using chemical synthesis
[1]; 1 μg/ml, LPS 0.6 ng/ml
  TNF: 528 pg/mL
  TNF % of control: 73%
[1]; 1 μg/ml, LPS 20 ng/ml
  TNF: 451 pg/mL
  TNF % of control: 21%
[1]; 1 μg/ml, Medium
  TNF: 0 pg/mL
[2]; 1 μg/ml, LPS 0.6 ng/ml
  IL-10: 71 pg/mL
  IL-10 % of control: 107%
[2]; 1 μg/ml, LPS 20 ng/ml
  IL-10 % of control: 137%
[2]; 1 μg/ml, Medium
  IL-10: 0 pg/mL
[3]; [5]
  IL-1β: 331 pg/mL
  IL-1β % of control: 45%
[3]; [7]
  IL-1β: 568 pg/mL
  IL-1β % of control: 22%
[3]; [9]
  IL-1β: 0 pg/mL
[4]; 10 μg/ml
  toxicity to the cells: toxic to the cells
[4]; 40 μg/ml
  toxicity to the cells: toxic to the cells

## hBD1: human beta defensin 1 (SEQ ID NO:1), prepared using chemical synthesis (DHYNCVSSGGQCLYSACPIFTKIQGTCYRGKAKCCK; not fully specified; cysteine pairing not given here; listed as Homo sapiens)
[1]; 1 μg/ml, LPS 0.6 ng/ml
  TNF: 474 pg/mL
  TNF % of control: 65%
[1]; 1 μg/ml, LPS 20 ng/ml
  TNF: 1395 pg/mL
  TNF % of control: 64%
[1]; 1 μg/ml, Medium
  TNF: 1 pg/mL
[1]; 10 μg/ml, LPS 0.6 ng/ml
  TNF: 203 pg/mL
  TNF % of control: 28%
[1]; 10 μg/ml, LPS 20 ng/ml
  TNF: 1311 pg/mL
  TNF % of control: 61%
[1]; 10 μg/ml, Medium
  TNF: 0 pg/mL
[1]; 40 μg/ml, LPS 0.6 ng/ml
  TNF: 91 pg/mL
  TNF % of control: 13%
[1]; 40 μg/ml, LPS 20 ng/ml
  TNF: 999 pg/mL
  TNF % of control: 46%
[1]; 40 μg/ml, Medium
  TNF: 0 pg/mL
[2]; 1 μg/ml, LPS 0.6 ng/ml
  IL-10: 71 pg/mL
  IL-10 % of control: 108%
[2]; 1 μg/ml, LPS 20 ng/ml
  IL-10: 95 pg/mL
  IL-10 % of control: 85%
[2]; 1 μg/ml, Medium
  IL-10: 0 pg/mL
[2]; 10 μg/ml, LPS 0.6 ng/ml
  IL-10: 76 pg/mL
  IL-10 % of control: 114%
[2]; 10 μg/ml, LPS 20 ng/ml
  IL-10: 100 pg/mL
  IL-10 % of control: 90%
[2]; 10 μg/ml, Medium
  IL-10: 0 pg/mL
[2]; 40 μg/ml, LPS 0.6 ng/ml
  IL-10: 69 pg/mL
  IL-10 % of control: 104%
[2]; 40 μg/ml, LPS 20 ng/ml
  IL-10: 113 pg/mL
  IL-10 % of control: 102%
[2]; 40 μg/ml, Medium
  IL-10: 0 pg/mL
[3]; [5]
  IL-1β: 512 pg/mL
  IL-1β % of control: 69%
[3]; [6]
  IL-1β: 401 pg/mL
  IL-1β % of control: 54%
[3]; [11]
  IL-1β: 302 pg/mL
  IL-1β % of control: 41%
[3]; [7]
  IL-1β: 2087 pg/mL
  IL-1β % of control: 82%
[3]; [8]
  IL-1β: 1913 pg/mL
  IL-1β % of control: 75%
[3]; [12]
  IL-1β: 1599 pg/mL
  IL-1β % of control: 63%
[3]; [9]
  IL-1β: 0 pg/mL
[3]; [10]
  IL-1β: 0 pg/mL
[3]; Medium (no LPS), test compound 40 μg/ml
  IL-1β: 0 pg/mL
